Laboratory results: paper PMC9914926, “Bioactive Compounds of Underground Valerian Extracts and Their Effect on Inhibiting Metabolic Syndrome-Related Enzymes Activities” (Foods, 2023)
Where two headings read alike, the source gives them in different places.

Assays:
[1] = biological target: T1, porcine pancreatic α-amylase (Sus scrofa, UniProt P00690); assay: α-amylase inhibition assay; format: biochemical; conditions: for inhibition of α-amylase activity: 0.5–2 mg/mL; for inhibition ability on α-amylase: dosage 0–2.5 mg/mL
T1 construct: purchased Sigma-Aldrich (St. Louis, MO, USA); host or cells: porcine pancreas
T1 sequence (P00690 16-511): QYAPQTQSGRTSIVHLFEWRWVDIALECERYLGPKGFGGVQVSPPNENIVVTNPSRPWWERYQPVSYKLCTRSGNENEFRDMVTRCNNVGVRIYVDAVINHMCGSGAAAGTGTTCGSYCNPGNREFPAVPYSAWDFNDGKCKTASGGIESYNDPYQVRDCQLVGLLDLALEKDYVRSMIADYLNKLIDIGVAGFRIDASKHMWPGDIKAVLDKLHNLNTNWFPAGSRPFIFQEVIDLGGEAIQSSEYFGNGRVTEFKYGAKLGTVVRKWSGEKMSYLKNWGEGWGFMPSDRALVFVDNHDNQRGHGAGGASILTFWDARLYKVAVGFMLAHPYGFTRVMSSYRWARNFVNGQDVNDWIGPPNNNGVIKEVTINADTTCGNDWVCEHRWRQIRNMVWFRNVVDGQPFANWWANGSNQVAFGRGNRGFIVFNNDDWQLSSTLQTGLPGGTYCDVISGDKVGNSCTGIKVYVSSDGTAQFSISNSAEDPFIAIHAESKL

[2] = scavenging ability on DPPH radicals; conditions: 0–250 μg/mL
Experimental: The scavenging ability of each extract on DPPH radicals was determined based on the method by Shimada et al.. Each extract was prepared in methanol at 0–1000 μg extract/mL, and 4 mL was mixed with 1 mL of methanolic solution containing DPPH radicals to a final concentration of 0.2 mM DPPH. After the mixture was shaken vigorously, it was left to stand in the dark for 30 min, and then the absorbance of the mixture was measured at 517 nm against a blank. […] Ascorbic acid, BHA, α-tocopherol, acetoxyvalerenic acid, and valerenic acid were compared. Each analysis was carried out in quadruplicate.

pancreatic lipase = biological target: T2, pancreatic lipase (Homo sapiens, UniProt P16233); assay: lipase inhibition assay; format: biochemical; conditions: for inhibition of pancreatic lipase activity: 0.5–2 mg/mL
T2 sequence (P16233 17-465): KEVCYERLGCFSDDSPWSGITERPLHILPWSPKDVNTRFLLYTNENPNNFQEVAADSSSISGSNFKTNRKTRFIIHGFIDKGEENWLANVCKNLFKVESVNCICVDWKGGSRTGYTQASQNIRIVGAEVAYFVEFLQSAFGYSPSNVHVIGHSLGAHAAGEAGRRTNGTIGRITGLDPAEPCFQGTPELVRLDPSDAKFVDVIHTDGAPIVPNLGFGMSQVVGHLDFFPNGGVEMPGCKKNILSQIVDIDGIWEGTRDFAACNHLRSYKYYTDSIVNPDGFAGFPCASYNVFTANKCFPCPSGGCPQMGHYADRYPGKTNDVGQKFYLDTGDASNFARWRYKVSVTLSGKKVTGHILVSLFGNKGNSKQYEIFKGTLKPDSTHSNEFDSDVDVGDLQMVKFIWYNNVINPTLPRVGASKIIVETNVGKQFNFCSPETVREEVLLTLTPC

rabbit lung ACE = biological target: T3, rabbit lung ACE (Oryctolagus cuniculus, UniProt P12822); assay: ACE inhibition assay (hippuric acid by HPLC); format: biochemical
T3 construct: purchased Sigma-Aldrich (St. Louis, MO, USA); host or cells: rabbit lung
T3 sequence (P12822 34-1310): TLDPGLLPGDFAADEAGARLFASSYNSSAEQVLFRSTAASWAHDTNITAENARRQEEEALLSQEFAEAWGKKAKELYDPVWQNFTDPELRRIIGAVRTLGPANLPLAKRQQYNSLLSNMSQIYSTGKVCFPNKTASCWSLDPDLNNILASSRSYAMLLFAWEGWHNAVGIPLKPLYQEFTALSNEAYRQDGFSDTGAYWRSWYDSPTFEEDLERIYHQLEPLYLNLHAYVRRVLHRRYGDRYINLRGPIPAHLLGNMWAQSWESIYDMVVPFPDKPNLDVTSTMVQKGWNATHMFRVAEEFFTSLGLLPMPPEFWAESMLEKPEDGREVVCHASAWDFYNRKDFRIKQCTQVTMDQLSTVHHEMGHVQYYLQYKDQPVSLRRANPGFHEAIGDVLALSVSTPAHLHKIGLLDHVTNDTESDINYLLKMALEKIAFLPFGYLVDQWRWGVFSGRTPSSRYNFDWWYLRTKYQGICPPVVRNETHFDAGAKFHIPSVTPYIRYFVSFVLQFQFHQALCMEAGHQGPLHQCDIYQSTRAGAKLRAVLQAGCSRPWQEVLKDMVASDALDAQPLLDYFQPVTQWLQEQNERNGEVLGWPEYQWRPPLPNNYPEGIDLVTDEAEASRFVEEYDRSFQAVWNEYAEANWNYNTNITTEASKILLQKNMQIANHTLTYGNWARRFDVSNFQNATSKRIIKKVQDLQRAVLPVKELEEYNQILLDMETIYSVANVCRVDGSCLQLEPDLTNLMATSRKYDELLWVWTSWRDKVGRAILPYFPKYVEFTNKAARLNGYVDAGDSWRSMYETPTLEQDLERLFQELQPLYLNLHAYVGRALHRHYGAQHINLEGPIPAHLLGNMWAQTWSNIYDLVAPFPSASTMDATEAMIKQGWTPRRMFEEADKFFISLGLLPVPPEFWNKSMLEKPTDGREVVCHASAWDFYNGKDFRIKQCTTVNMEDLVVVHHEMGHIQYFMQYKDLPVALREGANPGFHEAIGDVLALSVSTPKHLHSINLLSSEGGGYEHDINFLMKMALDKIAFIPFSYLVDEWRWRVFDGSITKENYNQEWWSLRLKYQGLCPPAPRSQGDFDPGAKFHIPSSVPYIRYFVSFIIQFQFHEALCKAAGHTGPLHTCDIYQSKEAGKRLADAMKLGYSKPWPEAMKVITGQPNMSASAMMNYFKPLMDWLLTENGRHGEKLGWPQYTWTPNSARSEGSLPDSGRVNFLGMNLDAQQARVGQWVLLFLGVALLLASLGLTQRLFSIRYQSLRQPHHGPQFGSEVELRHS

α-glucosidase = α-glucosidase inhibition assay; format: biochemical
[3] = read-out: IC50, ACE (converted)

IC50 (rabbit lung ACE; [3]) [mM]	Compound	IC50, α-Glucosidase (α-glucosidase)	IC50 (pancreatic lipase) [mM]	inhibition ability on α-amylase [1]	also measured
–	C[C@H]1O[C@H](O[C@H]2[C@H](O)[C@@H](O)[C@@H](O[C@H]3[C@H](O)[C@@H](O)C(O)O[C@@H]3CO)O[C@@H]2CO)[C@H](O)[C@@H](O)[C@@H]1N[C@H]1C=C(CO)[C@@H](O)[C@H](O)[C@H]1O (stereo partly drawn) [Acarbose, acarbose, reference compound]	–	–	–	inhibitory ability of α-amylase ([1]; 5–25 μg/mL): 47–88%
–	CC(=O)O[C@@H]1CC(C)=C2[C@H]1[C@H](C)CC[C@H]2/C=C(\C)C(=O)O [Acetoxyvalerenic acid, acetoxyvalerenic acid]	1.827 ± 0.005D mg/mL	–	–	ability to scavenge DPPH radicals [2]: not able to scavenge the DPPH radicals; inhibition of pancreatic lipase activity (pancreatic lipase): Neither; inhibitory ability on ACE (rabbit lung ACE; 2 mg/mL): 15%; inhibition of α-amylase activity [1]: could not effectively inhibit
0.522	O=C(O)/C=C/c1ccc(O)c(O)c1 [Caffeic acid, caffeic acid]	1.289 ± 0.024E mg/mL	4.03	–	–
13.6	O=C(/C=C/c1ccc(O)c(O)c1)O[C@@H]1C[C@](O)(C(=O)O)C[C@@H](O)[C@H]1O [Chlorogenic acid]	–	3.13	0–89.52%	IC50 ([1]; read-out: IC50, α-Amylase (converted)): 5.06 mM
–	O=C(O)c1cc(O)c(O)c(O)c1 [Gallic acid, gallic acid]	2.164 ± 0.026C mg/mL	3.66	0–95.22%	IC50 (rabbit lung ACE): 12.3 mM; IC50 [1]: 7.39 mM
–	CC1=C2[C@H](/C=C(\C)C(=O)O)CC[C@@H](C)[C@H]2CC1 [Valerenic acid]	0.617 ± 0.028F mg/mL	–	–	ability to scavenge DPPH radicals [2]: not able to scavenge the DPPH radicals; inhibition of pancreatic lipase activity (pancreatic lipase): Neither; IC50, ACE (rabbit lung ACE): 0.225 ± 0.023D mg/mL; inhibition of α-amylase activity [1]: could not effectively inhibit

Compound	IC50 (rabbit lung ACE; [3]) [mM]	IC50, α-Glucosidase (α-glucosidase)	IC50 (pancreatic lipase) [mM]	inhibition ability on α-amylase [1]	also measured
O=C(O)c1ccc(O)c(O)c1 [Protocatechuic acid, protocatechuic acid]	16	3.721 ± 0.042B mg/mL	4.37	0–88.03%	–
